Source: patent publication US11510876B2, “In vivo targeting of extracellular vesicles” (Mayo Foundation for Medical Education and Research, priority 2019, dated 2022)

Legend:
[1] = tested on: ^89Zr labeled stem cell derived exosomes; assay: PET imaging of methylene blue mediated homing of intravenously injected 89Zr labeled exosomes to the injected hind paw (FIG. 11); format: in vivo, mouse; settings: 1% methylene blue in Lactated Ringer's Solution injected in hind limb paw 1 h after i.v. exosomes; PET 1 h later; opposite paw (Ringer's only) showed no accumulation
Excerpt: FIG. 11 illustrates four PET images of injected ^89Zr labeled exosomes in mice. PET images 450, 452 utilized stem cell derived exosomes, whereas PET images 454, 456 illustrate prostate cancer (PC-3) derived exosomes. Both groups of exosomes were labeled with ^89Zr, a positron emitter, which allows the exosomes to be tracked within the mouse by PET imaging. As illustrated in some or all of the PET images 450, 452, 454, 456, the heart/lungs 460, the liver 462, the gut 464/468 and 466/470 show “hotspots” of the ^89Zr labeled exosomes (homing agent mediated accumulation zones of the ^89Zr labeled exosomes). […] For PET image 452, the ^89Zr labeled stem cell derived exosomes were intravenously injected (via tail vein). Then after one hour, 1% methylene blue (in Lactated Ringer's Solution) was injected in a hind limb paw. The opposite hind limb paw received a methylene blue-free and sterile Lactated Ringer's Solution. One hour after administering the methylene blue solution, the PET image 452 was taken. […] Thus, the methylene blue homed the ^89Zr linked stem cell derived exosomes from circulation, effectively showing that the ^89Zr labeled stem cell derived exosomes targeted methylene blue.

[2] = tested on: ^89Zr labeled PC-3 derived exosomes; assay: as above; format: in vivo, mouse; settings: 1% methylene blue in Lactated Ringer's Solution injected in hind limb paw 1 h after i.v. exosomes; PET 1 h later; opposite paw (Ringer's only) showed no accumulation
Description: For PET image 456, the ^89Zr labeled PC-3 derived exosomes were intravenously injected (via tail vein). Then after one hour, 1% methylene blue (in Lactated Ringer's Solution) was injected in a hind limb paw. The opposite hind limb paw received a methylene blue-free and sterile Lactated Ringer's Solution. One hour after administering the methylene blue solution, the PET image 456 was taken. […] Thus, methylene blue homed the ^89Zr labeled PC-3 derived exosomes from circulation to the paw region, effectively showing that the ^89Zr labeled PC-3 derived exosomes targeted methylene blue.

[3] = tested on: ^89Zr labeled stem cell derived exosomes; assay: Time-lapse PET imaging of the bio-distribution of 89Zr labeled exosomes after methylene blue paw injections (FIG. 12); format: in vivo, mouse
Description: FIG. 12 illustrates four time-lapse PET images showing the bio-distribution of injected ^89Zr labeled stem cell derived exosomes in a mouse. Similarly to the experiment illustrated in FIG. 11, stem cell derived exosomes were labeled with ^89Zr, a positron emitter, which allows the exosomes to be tracked within the mouse by PET imaging. Then, the ^89Zr labeled stem cell derived exosomes were injected intravenously into the mouse, and subsequently imaged thirty minutes after the injection, shown in PET image 500. Illustrated in PET image 500, and also the other PET images 502, 504, 506, are “hotspots” of the administered ^89Zr labeled stem cell derived exosomes (homing agent mediated accumulation zones of the ^89Zr labeled exosomes) at specific locations within the mouse (e.g., the heart 510, the liver 512, and the gut 514). […] Thus, the ^89Zr labeled stem cell derived exosomes were effectively homed to the tissue that contained methylene blue. After administering the methylene blue solution, 20 additional hours were lapsed before completing a second imaging of the mouse (at PET image 504). […] Then, immediately after acquiring PET image 504, the mouse was injected with the methylene blue solution at the hind paw (designated numeral 520), opposite the first hind paw injected with methylene blue (designated numeral 516). One hour after the second injection at the opposite hind paw at reference numeral 520, PET image 506 was acquired.

[4] = tested on: SK-N-SH brain cancer (bone marrow metastasis) derived exosomes; assay: PET imaging of methylene blue mediated homing of intravenously injected 89Zr labeled exosomes to the injected hind paw (FIG. 13); format: in vivo, mouse; settings: 1% methylene blue in hind limb paw 1 h after i.v. exosomes; PET 1 h later; opposite paw (Ringer's only) showed no accumulation
Description: (§1) FIG. 13 illustrates methylene blue was able to home exosomes irrespective of their cellular origin. PET image 550 and 554 was taken one hour after the mouse was intravenously injected (via tail vein) with the ^89Zr labeled A549 lung cancer derived exosomes and SK-N-SH brain cancer (bone marrow metastasis) derived exosomes, respectively. […] Then after one hour, 1% methylene blue (in Lactated Ringer's Solution) was injected in a hind limb paw. The opposite hind limb paw received a methylene blue-free and sterile Lactated Ringer's Solution. One hour after administering the methylene blue solution, the PET image 552 and 556 was taken. […] Thus, the methylene blue homed the ^89Zr labeled A549 and SK-N-SH derived exosomes from circulation showing that it can home extracellular vesicles independent of their cellular origin.

[5] = tested on: ^89Zr labeled A549 lung cancer derived exosomes; assay: as above; format: in vivo, mouse; settings: 1% methylene blue in hind limb paw 1 h after i.v. exosomes; PET 1 h later; opposite paw (Ringer's only) showed no accumulation
Description: as §1

extracellular vesicles = assay: Homing of extracellular vesicles to the target site by an injected homing agent; format: in vivo; settings: subcutaneous area in foot pad of a mouse, 500 ng also printed as 1.6 nmol
Excerpt: We have discovered that non-toxic doses of phenothiazine derivatives or polyethylene glycols are useful for the homing of exogenous extracellular vesicles to specific tissues in the body. This discovery has many potential applications in therapy and diagnosis in its ability to spatially concentrate extracellular vesicles. These methods can improve the homing of extracellular vesicles to diseased tissues, as well as enriched sampling and extraction of extracellular vesicles for diagnostics at low cost. Rather than using extensively modified extracellular vesicles (e.g., with biological and/or chemical modifications), which can be complex and costly, extracellular vesicles can be targeted by using little to no modification of the extracellular vesicles themselves. […] Our initial findings show broad applicability with regard to the extracellular vesicles type/source and the target tissue in the context of homing using phenothiazine derivatives or polyethylene glycols. At present, the homing is effective with as low as 500 ng (1.6 nmol) of methylene blue injected at the target site. In this example, the target site is the subcutaneous area in foot pad of a mouse, with good perfusion of the methylene blue, so the effective amount of methylene blue for extracellular vesicle homing could be much lower than 500 ng (1.6 nmol).

CN(C)c1ccc2nc3ccc(=[N+](C)C)cc-3sc2c1 [methylene blue]
accumulation of ^89Zr labeled stem cell derived exosomes in the hind paw that received methylene blue [1]: significant accumulation
accumulation of ^89Zr labeled PC-3 derived exosomes in the hind paw that received methylene blue [2]: significant accumulation
homing of exosomes to methylene blue injection sites (PET image 502) ([3]; 1% methylene blue injected in a hind paw and a front paw 19 hours after i.v. exosomes, imaged 3 h post-methylene blue injection): homing of exosome to hind paw
signal from exosomes at methylene blue injection sites (PET image 504) ([3]; 20 additional hours after the methylene blue injection, hind paw and front paw): persistence of signal
accumulation of exosomes at second methylene blue injection site, opposite hind paw (PET image 506) ([3]; second methylene blue injection about two days after exosome injection, PET one hour later): accumulated at the target site 520
accumulation of ^89Zr labeled SK-N-SH derived exosomes in the hind paw that received methylene blue (PET image 556) [4]: significant accumulation
accumulation of ^89Zr labeled A549 derived exosomes in the hind paw that received methylene blue (PET image 552) [5]: significant accumulation
lowest amount at which homing is effective (extracellular vesicles): 500 ng
